18 molecules from patent US20240254066A1, “RESCORCINOLS, METHODS FOR THEIR MANUFACTURE, AND USES THEREOF” (GW Research Limited, priority 2021, published 2024) can be followed below.

Some results are limits rather than exact numbers.

The data set deals with tonic hind limb extensor convulsions (mouse model of generalised seizure). Briefly: mini-MEST (maximal electroshock seizure threshold) test in the mouse. The conditions noted are these: for change in vivo at 5 mg/kg / change in vivo at 50 mg/kg: Mus musculus, ip, change in CC50; for change in vivo at 5 mg/kg: 0.25 h, read-out: % change from vehicle, 5 mg/kg i.p., 15 min post dose; for change in vivo at 50 mg/kg: 0.5 h, read-out: % change from vehicle, 50 mg/kg i.p., 30 min post dose. The protocol:
The efficacy of novel resorcinols 2, 3, 5, 8, 10, 15, 16, 17, 18, 19, 41 45, 46, 53, 56 and 58 were tested in a novel mouse model of generalised seizure, the mini-MEST (maximal electroshock seizure threshold) test, which uses lower n numbers than typically used.
The maximal electroshock seizure threshold (MEST) test is widely utilized preclinically to evaluate pro- or anti-convulsant properties of test compounds (Loscher et al., 1991).
In the MEST test the ability of a drug to alter the seizure threshold current required to induce hind limb tonic extensor convulsions is measured according to an “up and down” method of shock titration (Kimball et al., 1957). An increase in seizure threshold is indicative of anti-convulsant effect.
The ability of a test compound to alter the stimulus intensity, expressed as current (mA), required to induce the presence of tonic hind limb extensor convulsions, is assessed in the MEST.
Naïve mice were acclimatised to the procedure room in their home cages for up to 7 days, with food and water available ad libitum.
All animals were weighed at the beginning of the study and randomly assigned to treatment groups based on a mean distribution of body weight across groups.
The first animal within a treatment group was given a shock at the expected or estimated CC50 current. For subsequent animals, the current was lowered or raised depending on the convulsions outcome from the preceding animal in log scale intervals.
Data generated from each treatment group were used to calculate the CC50±SEM values for the treatment group.
Vehicle: (5% ethanol, 10% solutol in 85% Saline) was prepared as follows: 1 mL of ethanol, 2 mL of solutol were warmed to 60° C., in 17 mL of saline (1:2:17).
The test compounds used were 2, 3, 5, 8, 10, 15, 16, 17, 18, 19, 41, 45, 46, 53, 56 and 58 Test compounds were administered at 5-50 mg/kg (i.p.) in a 1:2:17 ethanol:solutol:saline formulation.
Test compound effects were also calculated as percentage change in CC50 from the vehicle control group.
Significant difference between drug-treated animals and controls were assessed according to Litchfield and Wilcoxon (1949).
A general note: The maximal electroshock test induces tonic seizures with an electrical stimulus.

The mark [1] stands for this setting: 5 mg/kg i.p., test 15 min post dose.
Setting [2] is: 50 mg/kg i.p., test 30 min post dose.

For the molecule `C=C(C)[C@@H]1C[C@H](O)C(C)=C[C@H]1c1c(O)cc(Cl)cc1O` [Compound 2, (1′R,2′R,4′S)-4-Chloro-5′-methyl-2′-(prop-1-en-2-yl)-1′,2′,3′,4′-tetrahydro-[1,1′-biphenyl]-2,4′,6-triol], the change in vivo at 5 mg/kg is 7% and the change in vivo at 50 mg/kg is over 330%. Further, the “CC50 +/− SEM” value under setting [1] amounted to 28.3 ± 1.1 mA. Also, the “CC50 +/− SEM” value under setting [2] is given as over 114 mA.
For `C=C(C)[C@@H]1C[C@H](O)C(C)=C[C@H]1c1c(O)cc(CC)cc1O` [Compound 3, (1″R,2′R,4′S)-4-Ethyl-5′-methyl-2″-(prop-1-en-2-yl)-1′,2″,3″,4′-tetrahydro-[1,1″-biphenyl]-2,4′,6-triol] the same measures were 77%, 137%, 44.2 +/− 1.4 mA and 59.2 +/− 1.4 mA.
In the same order, the values of `C=C(C)[C@@H]1C[C@H](O)C(C)=C[C@H]1c1c(O)cc(CCOC)cc1O` [Compound 5, (1′R,2′R,4′S)-4-(2-Methoxyethyl)-5′-methyl-2′-(prop-1-en-2-yl)-1″,2′,3′,4′-tetrahydro-[1,1′-biphenyl]-2,4′,6-triol] are 0%, 115%, 23.5 +/− 0.3 mA and 50.5 +/− 0.7 mA.
With `C=C(C)[C@@H]1C[C@H](O)C(C)=C[C@H]1c1c(O)cc(/C=C/C)cc1O` [Compound 7, (1′R,2′R,4′S)-5′-Methyl-4-((E)-prop-1-en-1-yl)-2′-(prop-1-en-2-yl)-1′,2′,3′,4′-tetrahydro-[1,1′-biphenyl]-2,4′,6-triol], the change in vivo at 5 mg/kg is -2% and the change in vivo at 50 mg/kg worked out at 153%. Further, the “CC50 +/− SEM” value under setting [1] stood at 29.0 ± 1.5 mA. Also, the “CC50 +/− SEM” value under setting [2] is 75.0 ± 3.4 mA.
`C=C(C)[C@@H]1C[C@H](O)C(C)=C[C@H]1c1c(O)cc(C2CC2)cc1O` [Compound 8, (1′R,2′R,4′S)-4-Cyclopropyl-5′-methyl-2′-(prop-1-en-2-yl)-1′,2′,3′,4′-tetrahydro-[1,1′-biphenyl]-2,4″,6-triol]: the change in vivo at 5 mg/kg is 9% and the change in vivo at 50 mg/kg was 159%. Under setting [1], the “CC50 +/− SEM” value was determined as 24.5 ± 0.9 mA. Moreover, the “CC50 +/− SEM” value under setting [2] is 58.2 ± 2.0 mA.
For the molecule `C=C(C)[C@@H]1C[C@H](O)C(C)=C[C@H]1c1c(O)cc(C2=CCCC2)cc1O` [Compound 9, (1′R,2′R,4′S)-4-(Cyclopent-1-en-1-yl)-5′-methyl-2′-(prop-1-en-2-yl)-1′,2′,3′,4′-tetrahydro-[1,1′-biphenyl]-2,4′,6-triol], the change in vivo at 50 mg/kg was over 344%. The “CC50 +/− SEM” value under setting [2] is listed as over 131.0 mA.
Consider `C=C(C)[C@@H]1C[C@H](O)C(C)=C[C@H]1c1c(O)cc(-c2cnn(C)c2)cc1O` [Compound 10, (1′R,2′R,4′S)-5′-Methyl-4-(1-methyl-1H-pyrazol-4-yl)-2′-(prop-1-en-2-yl)-1′,2″,3′,4′-tetrahydro-[1,1′-biphenyl]-2,4′,6-triol], for which the change in vivo at 5 mg/kg stood at 21% and the change in vivo at 50 mg/kg stood at 32%. Moreover, the “CC50 +/− SEM” value under setting [1] was 28.3 +/− 1.1 mA. Besides, the “CC50 +/− SEM” value under setting [2] is on record as 31.0 +/− 0.2 mA.
With `C=C(C)[C@@H]1C[C@H](O)C(C)=C[C@H]1c1c(O)cc(-c2cccc(OC)c2)cc1O` [Compound 15, (1R,2R,4S)-3″-Methoxy-5-methyl-2-(prop-1-en-2-yl)-1,2,3,4-tetrahydro-[1,1′:4′,1″-terphenyl]-2′,4,6′-triol], the change in vivo at 50 mg/kg was over 407%. In addition, the “CC50 +/− SEM” value under setting [2] was over 114 mA.
As to `C=C(C)[C@@H]1C[C@H](O)C(C)=C[C@H]1c1c(O)cc(-c2ccnc(OC)c2)cc1O` [Compound 16, (1′R,2′R,4′S)-4-(2-Methoxypyridin-4-yl)-5′-methyl-2′-(prop-1-en-2-yl)-1″,2′,3′,4′-tetrahydro-[1,1′-biphenyl]-2,4′,6-triol], the change in vivo at 50 mg/kg is 213%. Besides, under setting [2], the “CC50 +/− SEM” value is on record as 70.5 +/− 1.3 mA.
As for `C=C(C)[C@@H]1C[C@H](O)C(C)=C[C@H]1c1c(O)cc(-c2ccc(OC)nc2)cc1O` [Compound 17, (1′R,2′R,4′S)-4-(6-Methoxypyridin-3-yl)-5′-methyl-2′-(prop-1-en-2-yl)-1′,2′,3′,4′-tetrahydro-[1,1′-biphenyl]-2,4′,6-triol], the change in vivo at 5 mg/kg stood at 66% and the change in vivo at 50 mg/kg is over 385%. The “CC50 +/− SEM” value under setting [1] is recorded as 39.0 +/− 0.2 mA. Also, the “CC50 +/− SEM” value under setting [2] is reported as over 114 mA.
For the molecule `C=C(C)[C@@H]1C[C@H](O)C(C)=C[C@H]1c1c(O)cc(-c2ccc(F)cc2)cc1O` [Compound 18, (1R,2R,4S)-4″-fluoro-5-methyl-2-(prop-1-en-2-yl)-1,2,3,4-tetrahydro-[1,1′:4′,1″-terphenyl]-2′,4,6′-triol], the change in vivo at 5 mg/kg came out at 38% and the change in vivo at 50 mg/kg is 178%. Under setting [1], the “CC50 +/− SEM” value came to 31.0 ± 4.5 mA. Also, the “CC50 +/− SEM” value under setting [2] came out at 61.5 ± 1.3 mA.
In the same order, the values of `C=C(C)[C@@H]1C[C@H](O)C(C)=C[C@H]1c1c(O)cc(-c2ccc(OC(F)F)nc2)cc1O` [Compound 19, (1′R,2′R,4′S)-4-(6-(Difluoromethoxy)pyridin-3-yl)-5′-methyl-2′-(prop-1-en-2-yl)-1′,2″,3′,4′-tetrahydro-[1,1′-biphenyl]-2,4′,6-triol] are 43%, 268%, 38.0 ± 1.9 mA and 97.5 ± 1.3 mA.
For `C=C(C)[C@@H]1C[C@H](O)C(C)=C[C@H]1c1c(O)cc(C2=CCOCC2)cc1O` [Compound 26, (1′R,2′R,4′S)-4-(3,6-Dihydro-2H-pyran-4-yl)-5′-methyl-2′-(prop-1-en-2-yl)-1′,2″,3′,4′-tetrahydro-[1,1′-biphenyl]-2,4′,6-triol] the same measures were 24%, 100%, 31.0 ± 0.2 mA and 50.0 ± 2.6 mA.
In the same order, the values of `C=C(C)[C@@H]1C[C@H](O)C(C)=C[C@H]1c1c(O)cc(-c2ccccc2OC)cc1O` [Compound 29, (1R,2R,4S)-2″-Methoxy-5-methyl-2-(prop-1-en-2-yl)-1,2,3,4-tetrahydro-[1,1′:4′,1″-terphenyl]-2″,4,6′-triol] are 32%, 166%, 35.0 ± 2.6 mA and 70.5 ± 1.3 mA.
For `C=C(C)[C@@H]1C[C@H](O)C(C)=C[C@H]1c1c(O)cc(-c2ccc(F)c(OC)c2)cc1O` [Compound 30, (1R,2R,4S)-4″-Fluoro-3″-methoxy-5-methyl-2-(prop-1-en-2-yl)-1,2,3,4-tetrahydro-[1,1′:4′,1″-terphenyl]-2′,4,6′-triol], the change in vivo at 5 mg/kg came to 62% and the change in vivo at 50 mg/kg is over 394%. Moreover, the “CC50 +/− SEM” value under setting [1] is recorded as 43.0 ± 1.9 mA. Also, the “CC50 +/− SEM” value under setting [2] is over 131 mA.
For `C=C(C)[C@@H]1C[C@H](O)C(C)=C[C@H]1c1c(O)cc(-c2cccc(OC(F)F)c2)cc1O` [Compound 31, (1R,2R,4S)-3″-(Difluoromethoxy)-5-methyl-2-(prop-1-en-2-yl)-1,2,3,4-tetrahydro-[1,1′:4′,1″-terphenyl]-2′,4,6′-triol] the same measures were 25%, 200%, 33.0 ± 1.5 mA and 79.5 ± 1.3 mA.
In the same order, the values of `C=C(C)[C@@H]1C[C@H](O)C(C)=C[C@H]1c1c(O)cc(-c2ccc(OC)cc2)cc1O` [Compound 33, (1R,2R,4S)-4″-Methoxy-5-methyl-2-(prop-1-en-2-yl)-1,2,3,4-tetrahydro-[1,1′:4′,1″-terphenyl]-2′,4,6′-triol] are 47%, 200%, 38.8 ± 1.4 mA and 79.5 ± 0.9 mA.
In the same order, the values of `C=C(C)[C@@H]1C[C@H](O)C(C)=C[C@H]1c1c(O)cc(-c2cccnc2OC)cc1O` [Compound 35, (1′R,2′R,4′S)-4-(2-Methoxypyridin-3-yl)-5′-methyl-2′-(prop-1-en-2-yl)-1′,2′,3′,4′-tetrahydro-[1,1′-biphenyl]-2,4′,6-triol] are 62%, 457%, 38.0 ± 1.9 mA and over 131.0 mA.
